Structures are written as SMILES.

This data set concerns MCF7 xenograft. Kind of data set: MCF7 xenograft in BALB/c-nu female mice. The format is in vivo. Here is the method:
(A) Measurement of tumour volume in BALB/c-nu female mice as described in materials and methods. Animals (n=5 each group) were treated with vehicle, 5 mg/kg NPB or 20 mg/kg NPB, and relative tumour burden was recorded. Animal weight was measured daily for the duration of the experiment. (B) Tumours were excised after the NPB treatment regime and weighed. Representative resected tumours are shown in the right side. (C) WB of tumour tissue to determine levels of p-BAD (Ser99) and BAD. Soluble whole cell extracts were run on an SDS-PAGE and immunoblotted as described in methodology. β-ACTIN was used as an input control. The sizes of detected protein bands in kDa are shown on the left side. (D) Histological analyses of phospho-BAD, BAD, Ki67 and TUNEL staining. […] Apoptotic DNA fragmentation was detected using TUNEL Apoptosis Detection Kit (Gen Script USA Inc.) as described in methodology. Statistical significance was assessed by an unpaired two-tailed Student's t-test (P<0.05 was considered as significant) using GraphPad Prism5. The point represents mean of triplicate experiments; bars, ±SD. **P<0.001, *P<0.05.
5- to 6-week-old BALB/c-nu female mice were subcutaneously implanted with 17β-estradiol pellets (Innovative Research of America) at 0.72 mg/pellet with a 60-day release in the scruff of the neck after three days mice were injected subcutaneously with 100 μl of cell suspension (1×10^7 cells) in right flanks. Tumour growth was monitored by measuring the tumour size using callipers. About 12 days after implantation, mice were randomized and divided into three groups (each group, n=8), according to treatments administered 200 μl of NPB (dissolved in 5% DMSO, 50% PEG400 and 45% water pH 5.0) by intraperitoneal injection every day for seven days. The first group of mice was treated with vehicle, the second with 5 mg/kg dose of NPB, and the third with 20 mg/kg dose of NPB. Animal weight and tumour volumes were measured daily. After completion tumours were excised, photographed, weighed, and fixed or stored in liquid nitrogen for later analysis. Histological analysis was performed as previously described (30-32).
We examined the in vivo efficacy of NPB in a xenograft (MCF7) of MC. Randomly grouped mice with preformed tumours (volume ˜[…]) were injected intraperitoneally with vehicle or NPB at 5 mg/kg or 20 mg/kg. […] However, the tumour weight of NPB-treated animals was reduced compared to vehicle-treated mice and in a dose-dependent manner (FIG. 17B). We further analysed the effect of NPB on hBAD Ser99 phosphorylation levels in tumour tissue using WB analysis (FIG. 17C).

The mark [1] stands for this setting: 5 mg/kg or 20 mg/kg intraperitoneal, daily for seven days, vs vehicle.
[2] abbreviates: histological analysis, vs vehicle.
Where [3] appears, read: tumour tissue, western blot, vs control.

Consider `O=C(NC1CCCC1)c1cccc(C(c2ccccc2O)N2CCN(c3cccc(Cl)c3Cl)CC2)c1` (centres unmarked) [NPB, N-cyclopentyl-3-((4-(2,3-dichlorophenyl)piperazin-1-yl)(2-hydroxyphenyl)methyl) benzamide], for which, under setting [1], the animal weight result is on record as “not significantly different” and the tumour volume entry is on record as “significant reduction”. Further, where the note is “5 mg/kg or 20 mg/kg intraperitoneal, dose-dependent, vs vehicle”, the tumour weight result is “reduced”. In addition, under setting [2], the “TUNEL positivity in tumours” value is listed as “significantly increased”, the “p-BAD (Ser99) in tumour specimens (histology)” value was “significantly reduced” and the “percentage of Ki67 positive cells in tumours” value is “significantly decreased”. Further, under setting [3], the “phosphorylation of BAD (at Ser99) in tumour tissue (WB)” value is listed as “significantly inhibited” and the “total levels of BAD protein in tumours (WB)” value is “No change”.

The record behind these values is patent US11292773B2, “Small molecule inhibitors of BCL-2-associated death promoter (BAD) phosphorylation” (NATIONAL UNIVERSITY OF SINGAPORE, priority 2017, dated 2022).
